This is an account of results in PMC8750650 (bioRxiv, 2022).

In one data set the target is CSNK2A1 (Homo sapiens, UniProt P68400). Briefly: cell-based. It counts as cell-based.
The target of a further data set is CSNK2A2 (Homo sapiens, UniProt P19784). Briefly: cell-based.
Data set [1] relates to SARS-CoV-2 spike protein uptake. It counts as cell-based, human.
The subject of another data set is MHV-nLuc. The data set is described as follows: microbe, parasite or virus in culture. The settings on record: Murine coronavirus, 10 h, read-out: MHV replication (pIC50) (converted). It counts as cell-based, mouse hepatitis virus (MHV).
The subject of data set [2] is SARS-CoV-2. The settings on record: African green monkey kidney epithelial Vero cells infected with SARS-CoV-2; ref [18]; cited from earlier work.
The test system of another data set is A549-ACE2 cells. As to conditions: ref [18]; cited from earlier work.
The next data set has as its system DBT cells. The settings on record: LDH assay, 10 h, concentrations up to 10 μM.
The test system of data set [3] is SARS-CoV-2. As to conditions: human lung epithelial A549-ACE2 cells; ref [18]; cited from earlier work.
A further data set deals with Vero cells. As to conditions: ref [18]; cited from earlier work.

Molecules are shown by their SMILES. Bounds are passed on as bounds.

Chain of CSNK2A2 (P19784 whole entry): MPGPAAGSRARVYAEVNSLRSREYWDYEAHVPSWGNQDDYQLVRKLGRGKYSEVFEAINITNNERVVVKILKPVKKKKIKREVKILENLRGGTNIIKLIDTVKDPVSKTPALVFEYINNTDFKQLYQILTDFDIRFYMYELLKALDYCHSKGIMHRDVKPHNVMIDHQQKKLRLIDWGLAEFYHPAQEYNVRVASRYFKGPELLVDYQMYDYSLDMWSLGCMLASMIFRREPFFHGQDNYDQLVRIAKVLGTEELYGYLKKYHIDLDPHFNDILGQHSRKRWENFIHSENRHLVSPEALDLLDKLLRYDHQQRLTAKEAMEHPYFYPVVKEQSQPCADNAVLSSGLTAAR
Chain of CSNK2A1 (P68400 whole entry): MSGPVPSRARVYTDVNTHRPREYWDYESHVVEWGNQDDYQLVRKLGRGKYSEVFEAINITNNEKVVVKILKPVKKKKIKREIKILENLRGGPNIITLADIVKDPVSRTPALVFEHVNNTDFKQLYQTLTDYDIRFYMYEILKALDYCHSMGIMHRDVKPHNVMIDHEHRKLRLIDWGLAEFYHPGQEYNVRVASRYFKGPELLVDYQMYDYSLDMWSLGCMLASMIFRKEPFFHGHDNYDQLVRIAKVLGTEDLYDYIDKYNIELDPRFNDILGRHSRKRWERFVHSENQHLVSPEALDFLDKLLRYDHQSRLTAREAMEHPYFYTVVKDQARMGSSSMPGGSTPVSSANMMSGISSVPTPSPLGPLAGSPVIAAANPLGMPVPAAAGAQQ

Take `CC(=O)Nc1ccc2ccn(-c3cc(Sc4ccccc4)n4ncc(C#N)c4n3)c2c1` [Compound 33]: the IC50 on CSNK2A1 and at CSNK2A2 was 6310 nM each time.

Turning to `CCC(=O)Nc1cc(Nc2cc(NC3CC3)n3ncc(C#N)c3n2)ccc1N1CCNCC1` [Compound 14], the IC50 against CSNK2A1 is 158 nM.

For `CC(=O)Nc1ccc2ccn(-c3cc(NCC4CCOC4)n4ncc(C#N)c4n3)c2c1` (stereo not drawn) [Compound 25], the IC50 is 31.6 nM on CSNK2A1 and 251 nM against CSNK2A2.

Regarding `CC(=O)Nc1ccc2ccn(-c3cc(N[C@H](C)C#N)n4ncc(C#N)c4n3)c2c1` [Compound 30], the IC50 is 126 nM against CSNK2A1 and 79.4 nM against CSNK2A2.

In the case of `CC(=O)Nc1ccc2ccn(-c3cc(NCC4CCOCC4)n4ncc(C#N)c4n3)c2c1` [Compound 26], the IC50 at CSNK2A1 is 100 nM; at CSNK2A2, 2000 nM.

On to `CC(=O)Nc1ccc2ccn(-c3cc(NC4CCN(C(C)=O)CC4)n4ncc(C#N)c4n3)c2c1` [Compound 28], for which the values for the IC50 at CSNK2A1 and against CSNK2A2 were 63.1 nM and 398 nM, respectively.

Turning to `CCC(=O)Nc1cc(Nc2cc(NC3CC3)n3ncc(C#N)c3n2)ccc1N(C)CCN1CCCCC1` [Compound 12], the IC50 against CSNK2A1 is 251 nM.

Turning to `CC(=O)Nc1ccc2ccn(-c3cc(NC4(C)CC4)n4ncc(C#N)c4n3)c2c1` [Compound 20], the IC50 at CSNK2A1 is 501 nM; on CSNK2A2, 1580 nM.

As for `CC(=O)Nc1ccc2ccn(-c3cc(NC45CC(C4)C5)n4ncc(C#N)c4n3)c2c1` [Compound 19], the IC50 on CSNK2A1 was 158 nM; on CSNK2A2, 79.4 nM.

Turning to `CC(=O)Nc1ccc2ccn(-c3cc(NCc4cnn(C)c4)n4ncc(C#N)c4n3)c2c1` [Compound 29], the IC50 is 158 nM against CSNK2A1 and 200 nM against CSNK2A2.

In the case of `CCC(=O)Nc1cc(Nc2cc(NC3CC3)n3ncc(C#N)c3n2)ccc1C` [SGC-CK2–1], the “decrease in spike protein uptake” value in [1] is 70–80%. Further, in the data set with MHV-nLuc, the IC50 was 126 nM.

`CCC(=O)Nc1cc(Nc2cc(NC3CC3)n3ncc(C#N)c3n2)ccc1N(C)CCN` [Compound 9]: the IC50 against CSNK2A1 is 3.98 nM.

With `O=C(O)c1ccc2c(c1)nc(Nc1cccc(Cl)c1)c1ccncc12` [silmitasertib], the “antiviral activity, SARS-CoV-2 (pIC50)” value with SARS-CoV-2 [2] was 5.6. In addition, the cell toxicity result in the data set on A549-ACE2 cells and in the data set on Vero cells was “cell toxicity at micromolar doses” throughout. Besides, the “effect on cell viability” value in the data set with DBT cells is “no effect on cell viability”. Also, the “inhibition of SARS-CoV-2 infection (pIC50)” value with SARS-CoV-2 [3] was under 5.

For `CCC(=O)Nc1cc(Nc2cc(NC3CC3)n3ncc(C#N)c3n2)ccc1N1CCCC(NC)C1` (stereo not drawn) [Compound 15], the IC50 against CSNK2A1 was 2 nM; against CSNK2A2, 15.8 nM. Also, the “selectivity for CSNK2A1 over CSNK2A2” value on CSNK2A1 (from nanoBRET values) was 6–8 fold.

With `CCC(=O)Nc1cc(Nc2cc(NC3CC3)n3ncc(C#N)c3n2)ccc1N(C)CCN1CCCC1` [Compound 11], the IC50 on CSNK2A1 and against CSNK2A2 was 100 nM throughout.

Regarding `CC(=O)Nc1ccc2ccn(-c3cc(NC4CC(F)(F)C4)n4ncc(C#N)c4n3)c2c1` [Compound 18], the IC50 on CSNK2A1 was 39.8 nM; at CSNK2A2 it was 100 nM.
